The text below walks through data of patent US7939661B2, “Pyridine, quinoline and pyrimidine derivatives” (Hoffman-La Roche Inc., priority 2006, dated 2011).

One may read the Ki as a measure of affinity in units of concentration, obtained from inhibition or displacement. Higher therefore signals lower affinity.

In this test the target is T1, human subtype 5 somatostatin receptor (Homo sapiens, UniProt P35346).
T1 construct: host or cells: CHO cells, stably transfected; membranes prepared from them
T1 sequence (P35346 whole entry): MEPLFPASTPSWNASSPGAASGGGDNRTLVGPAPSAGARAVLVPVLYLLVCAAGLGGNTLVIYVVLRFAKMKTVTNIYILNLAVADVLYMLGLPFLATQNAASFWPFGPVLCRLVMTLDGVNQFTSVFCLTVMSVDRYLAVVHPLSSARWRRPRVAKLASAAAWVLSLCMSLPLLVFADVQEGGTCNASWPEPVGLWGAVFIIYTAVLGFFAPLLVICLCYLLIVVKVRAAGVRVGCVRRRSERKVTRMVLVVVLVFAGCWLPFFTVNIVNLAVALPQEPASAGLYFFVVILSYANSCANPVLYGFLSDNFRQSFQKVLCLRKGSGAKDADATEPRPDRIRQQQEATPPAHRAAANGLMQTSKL
Nature of the test: radioligand replacement (binding) assay, membranes of CHO cells expressing human SSTR5, 125I-labeled 11-Tyr somatostatin-14 tracer. To be noted: human SSTR5, CHO cell membranes, 0.05 nM 125I-labeled 11-Tyr somatostatin-14, 1 h at rt; Ki from IC50 by Cheng-Prussoff equation. Here is the method:
A CHO cell line stably transfected with a plasmid encoding the human subtype 5 somatostatin receptor (GenBank accession number D16827) was obtained from Euroscreen. Cells were cultured and used for binding and functional assays.
Membranes of these cells were prepared by sonication in the presence of protease inhibitors and subsequent fractionating centrifugation. The protein concentration in the membrane preparation was determined using a commercial kit (BCA kit, Pierce, USA). Membranes were stored at −80° C. until use. After thawing membranes were diluted in assay buffer (50 mM Tris-HCl at pH 7.4, 5 mM MgCl2 and 0.20% BSA) and subjected to Dounce homogenization.
For binding studies, 0.1 mL membrane suspension, corresponding to approximately 6×10^−15 mol receptor, was incubated for 1 h at rt with 0.05 nM ^125I-labeled tracer (11-Tyr somatostatin-14, Perkin-Elmer) and either test compounds in varying concentrations or, for the determination of non-specific binding, 0.001 mM non-labeled somatostatin-14. The incubation was stopped by filtration through GF/B glassfiber filters and washing with ice-cold wash buffer (50 mM Tris-HCl at pH 7.4). The bound radioactivity was measured after application of a scintillation cocktail (Microscint 40) and expressed as disintegrations per minute (dpm).
The receptor concentration was determined in a prior saturation experiment where a fixed, arbitrary amount of membranes was incubated with a concentration range of radio-labeled tracer. This allows estimating the total number of specific binding sites per amount of protein (i.e., Bmax), typically between 1 and 5 pmol/mg.
The concentration of the test compound required to result in half maximal inhibition of binding of the radio-labeled tracer (IC50) was estimated from a concentration-versus-dpm graph. The binding affinity (Ki) was calculated from the IC50 by applying the Cheng-Prussoff equation for single binding sites.

Compound `CCOc1cc(CN2CCC(Nc3cnc4ccccc4c3)CC2)ccc1OC(F)F` [Example 99, [1-(4-difluoromethoxy-3-ethoxy-benzyl)-piperidin-4-yl]-quinolin-3-yl-amine] yielded a Ki of 62 nM.

Consider `CCOc1cc(CN2CCC(Nc3cnc(N)c(C)c3)CC2)cc(OCC)c1-c1ccc(F)cc1` [Example 79, N^5-[1-(2,6-diethoxy-4′-fluoro-biphenyl-4-ylmethyl)-piperidin-4-yl]-3-methyl-pyridine-2,5-diamine], for which the Ki came out at 25 nM.

The compound `CCOc1cc(CN2CCC(Nc3ccnc(C)c3)CC2)ccc1OCC(C)C` [Example 122, [1-(3-ethoxy-4-isobutoxy-benzyl)-piperidin-4-yl]-(2-methyl-pyridin-4-yl)-amine] came in with a Ki of 492 nM.
